# Results taken from patent US8598365B2, “Herbicides” (Syngenta Limited, priority 2007, dated 2013).
# Legend:
# Assay type in all cases: in vivo
# [1] = system: Echinochloa crus-galli (ECHCG); assay: Example B post-emergence herbicidal activity; conditions: 312 h, rate 250 g/ha, evaluated after 13 days, read-out: Post-emergence activity ECHCG (100=total damage to plant; 0=no damage to plant)
# How it was run: (§1)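 Plants were sprayed 1 day after sowing (pre-emergence) or after 8 days (post-emergence) with active ingredient in acetone/water 50:50 plus 0.5% Tween 20. They were grown in a glasshouse at 24/16 °C, 14 h light and 65% humidity. Damage was scored visually 0–100 after 13 days.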
# [2] = system: Alopecurus myosuroides (ALOMY); assay: Example B post-emergence herbicidal activity; conditions: 312 h, rate 250 g/ha, evaluated after 13 days, read-out: Post-emergence activity ALOMY (100=total damage to plant; 0=no damage to plant)
# How it was run: as §1
# [3] = system: Amaranthus retoflexus (AMARE); assay: Example B post-emergence herbicidal activity; conditions: Amaranthus retroflexus, 312 h, rate 250 g/ha, evaluated after 13 days, read-out: Post-emergence activity AMARE (100=total damage to plant; 0=no damage to plant)
# How it was run: as §1
# [4] = system: Avena fatua (AVEFA); assay: Example B post-emergence herbicidal activity; conditions: 312 h, rate 250 g/ha, evaluated after 13 days, read-out: Post-emergence activity AVEFA (100=total damage to plant; 0=no damage to plant)
# How it was run: as §1
# [5] = system: Setaria faberi (SETFA); assay: Example B post-emergence herbicidal activity; conditions: 312 h, rate 250 g/ha, evaluated after 13 days, read-out: Post-emergence activity SETFA (100=total damage to plant; 0=no damage to plant)
# How it was run: as §1
# [6] = system: Echinochloa crus-galli (ECHCG); assay: Example B pre-emergence herbicidal activity; conditions: 312 h, rate 250 g/ha, evaluated after 13 days, read-out: Pre-Emergence Activity ECHCG (100=total damage to plant; 0=no damage to plant)
# How it was run: as §1
# [7] = system: Alopecurus myosuroides (ALOMY); assay: Example B pre-emergence herbicidal activity; conditions: 312 h, rate 250 g/ha, evaluated after 13 days, read-out: Pre-Emergence Activity ALOMY (100=total damage to plant; 0=no damage to plant)
# How it was run: as §1
# [8] = system: Amaranthus retoflexus (AMARE); assay: Example B pre-emergence herbicidal activity; conditions: Amaranthus retroflexus, 312 h, rate 250 g/ha, evaluated after 13 days, read-out: Pre-Emergence Activity AMARE (100=total damage to plant; 0=no damage to plant)
# How it was run: as §1
# [9] = system: Avena fatua (AVEFA); assay: Example B pre-emergence herbicidal activity; conditions: 312 h, rate 250 g/ha, evaluated after 13 days, read-out: Pre-Emergence Activity AVEFA (100=total damage to plant; 0=no damage to plant)
# How it was run: as §1
# [10] = system: Setaria faberi (SETFA); assay: Example B pre-emergence herbicidal activity; conditions: 312 h, rate 250 g/ha, evaluated after 13 days, read-out: Pre-Emergence Activity SETFA (100=total damage to plant; 0=no damage to plant)
# How it was run: as §1
SMILES,pest or weed control at 250 g/ha [1] [%],pest or weed control at 250 g/ha [2] [%],pest or weed control at 250 g/ha [3] [%],pest or weed control at 250 g/ha [4] [%],pest or weed control at 250 g/ha [5] [%],pest or weed control at 250 g/ha [6] [%],pest or weed control at 250 g/ha [7] [%],pest or weed control at 250 g/ha [8] [%],pest or weed control at 250 g/ha [9] [%],pest or weed control at 250 g/ha [10] [%]
Cc1sc(-c2ccc(F)cc2)nc1C1C(=O)[C@@H]2CC[C@@H](C2)C1=O (stereo partly drawn) [Compound T57],100,70,0,60,100,90,60,0,20,90
COc1ccc(-c2nc(C3C(=O)[C@@H]4CC[C@@H](C4)C3=O)c(C)s2)cc1 (stereo partly drawn) [Compound T58],100,90,0,80,100,100,60,0,60,60
Cc1sc(-c2ccc(C(F)(F)F)cc2)nc1C1C(=O)[C@@H]2CC[C@@H](C2)C1=O (stereo partly drawn) [Compound T59],100,100,0,80,100,90,80,0,70,100
Cc1sc(-c2ccc3ccccc3c2)nc1C1C(=O)[C@@H]2CC[C@@H](C2)C1=O (stereo partly drawn) [Compound T63],100,60,0,70,100,100,90,0,90,90
Cc1sc(-c2ccc3c(c2)OCCO3)nc1C1C(=O)[C@@H]2CC[C@@H](C2)C1=O (stereo partly drawn) [Compound T64],50,0,0,0,70,0,20,0,0,0
Cc1sc(-c2ccc(C#N)cc2)nc1C1C(=O)[C@@H]2CC[C@@H](C2)C1=O (stereo partly drawn) [Compound T65],100,50,70,70,100,100,50,20,20,100
COCOc1ccc(-c2nc(C3C(=O)[C@@H]4CC[C@@H](C4)C3=O)c(C)s2)cc1 (stereo partly drawn) [Compound T66],70,10,0,0,70,30,10,0,0,30
COc1cc(F)c(-c2nc(C3C(=O)[C@@H]4CC[C@@H](C4)C3=O)c(C)s2)cc1F (stereo partly drawn) [Compound T68],100,70,0,90,100,0,60,0,70,80
Cc1sc(-c2ccc(F)cc2F)nc1C1C(=O)[C@@H]2CC[C@@H](C2)C1=O (stereo partly drawn) [Compound T70],100,90,40,50,100,60,70,100,30,100
Cc1sc(-c2cc(Cl)ccc2Cl)nc1C1C(=O)[C@@H]2CC[C@@H](C2)C1=O (stereo partly drawn) [Compound T73],20,0,0,0,30,0,0,0,50,0
Cc1sc(-c2ccc(Cl)c(C#N)c2)nc1C1C(=O)C2CCC(C2)C1=O (stereo not drawn) [Compound T74],70,50,0,0,90,20,30,100,0,40
Cc1cc(Cl)ncc1-c1nc(C2C(=O)[C@@H]3CC[C@@H](C3)C2=O)c(C)s1 (stereo partly drawn) [Compound T75],70,20,0,0,90,40,0,0,20,90
COc1ccc(-c2nc(C3C(=O)[C@@H]4CC[C@@H](C4)C3=O)c(C)s2)cc1F (stereo partly drawn) [Compound T76],90,70,0,50,80,50,0,0,0,70
CCOc1ccc(-c2nc(C3C(=O)[C@@H]4CC[C@@H](C4)C3=O)c(C)s2)cc1F (stereo partly drawn) [Compound T77],60,0,0,0,70,0,0,50,0,0
C=Cc1ccc(-c2nc(C3C(=O)[C@@H]4CC[C@@H](C4)C3=O)c(C)s2)cc1 (stereo partly drawn) [Compound T78],70,60,0,0,80,0,0,0,90,0
